From US8580965B2, “Substituted sulfonamide compounds” (Gruenenthal GmbH, priority 2006, dated 2013)
Where a name gives a salt, the structure may show the parent alone.

Assays:
[1] = target: T1, human B1R receptor (bradykinin 1 receptor) (Homo sapiens, UniProt P46663); experiment: FLIPR Ca2+ assay (Fluo-4) on CHO K1 cells stably transfected with the human B1R gene; % activation and % inhibition at 10 μM; format: cell-based; conditions: CHO K1 hB1R cells, Ca2+ inflow after 0.5 nM Lys-Des-Arg9-bradykinin; for inhibition at 10 µM: CHO-K1, test substance 10 μM, read-out: B1R antagonism, human [10 μM] % inhibition; for B1R antagonism, human [10 μM] % inhibition: test substance 10 μM
T1 construct: host or cells: CHO K1 cells (hB1R cells)
T1 sequence (P46663 1-353): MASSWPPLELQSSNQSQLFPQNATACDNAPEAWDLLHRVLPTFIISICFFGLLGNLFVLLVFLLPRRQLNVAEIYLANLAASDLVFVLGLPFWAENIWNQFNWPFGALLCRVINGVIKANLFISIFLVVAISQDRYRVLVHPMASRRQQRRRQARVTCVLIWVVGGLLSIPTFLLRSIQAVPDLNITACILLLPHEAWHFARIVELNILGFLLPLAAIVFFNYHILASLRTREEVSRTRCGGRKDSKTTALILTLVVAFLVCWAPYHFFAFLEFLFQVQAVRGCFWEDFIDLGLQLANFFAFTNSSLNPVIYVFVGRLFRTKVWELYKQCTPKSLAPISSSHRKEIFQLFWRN
Method in brief: (§1)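 CHO K1 cells stably expressing human or rat B1R, Fluo-4 loaded, read by FLIPR (peak fluorescence). Compound at 10 µM first gives % activation versus agonist; after 10 min, agonist (human: 0.5 nM Lys-Des-Arg9-bradykinin; rat: 100 nM Des-Arg9-bradykinin) gives % inhibition relative to maximal inhibition.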

[2] = target: T2, B1R receptor of the rat (bradykinin 1 receptor) (Rattus norvegicus, UniProt P97583); experiment: FLIPR Ca2+ assay (Fluo-4) on CHO K1 cells stably transfected with the B1R gene of the rat; % activation and % inhibition at 10 μM; format: cell-based; conditions: CHO K1 rB1R cells, Ca2+ inflow after 100 nM Des-Arg9-bradykinin; for inhibition at 10 µM: CHO-K1, test substance 10 μM, read-out: B1R antagonism, rat [10 μM] % inhibition; for B1R antagonism, rat [10 μM] % inhibition: test substance 10 μM
T2 construct: host or cells: CHO K1 cells (rB1R cells)
T2 sequence (P97583 1-337): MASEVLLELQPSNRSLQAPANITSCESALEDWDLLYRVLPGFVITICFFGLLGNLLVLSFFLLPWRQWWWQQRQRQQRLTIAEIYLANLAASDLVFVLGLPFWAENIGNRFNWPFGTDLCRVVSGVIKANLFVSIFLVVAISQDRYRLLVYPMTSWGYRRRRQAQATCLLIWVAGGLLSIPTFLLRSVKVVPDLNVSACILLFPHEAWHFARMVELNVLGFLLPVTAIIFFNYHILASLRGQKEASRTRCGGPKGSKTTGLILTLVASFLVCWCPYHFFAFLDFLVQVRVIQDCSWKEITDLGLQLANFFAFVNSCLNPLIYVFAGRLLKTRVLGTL
Method in brief: as §1

| Molecule | inhibition at 10 µM [1] | inhibition at 10 µM [2] | further results |
| --- | --- | --- | --- |
| O=C(CCC1CCCCN1S(=O)(=O)c1ccc2ccccc2c1)N1CCC(O)(c2cccnc2)CC1 (stereo not shown) [Example 117, 1-(4-hydroxy-4-(pyridin-3-yl)piperidin-1-yl)-3-(1-(naphthalen-2-ylsulfonyl)piperidin-2-yl)propan-1-one] | 84.8% | 24.2% | – |
| COc1cc(C)c(S(=O)(=O)N(CCOCC(=O)N2CCC(O)(c3ccc(Cl)c(C(F)(F)F)c3)CC2)CC2CC2)c(C)c1C [Example 237, N-(2-(2-(4-(4-chloro-3-(trifluoromethyl)phenyl)-4-hydroxypiperidin-1-yl)-2-oxoethoxy)ethyl)-N-(cyclopropylmethyl)-4-methoxy-2,3,6-trimethylphenyl-sulfonamide] | 103% | 100% | – |
| COc1cc(C)c(S(=O)(=O)N(C)CCOCC(=O)N2CCC(O)(c3cccnc3)CC2)c(C)c1 [Example 3, N-(2-(2-(4-hydroxy-4-(pyridin-3-yl)piperidin-1-yl)-2-oxoethoxy)ethyl)-4-methoxy-N,2,6-trimethylphenylsulfonamide hydrochloride] | – | – | B1R antagonism, human [10 μM] % inhibition ([1]; hydrochloride): 102.19%; B1R antagonism, rat [10 μM] % inhibition ([2]; hydrochloride): 103.06% |
| O=C(COCC1CCCN1S(=O)(=O)c1cc(Cl)sc1Cl)N1CCC(O)(c2cccnc2)CC1 (stereo not shown) [Example 203, 2-((1-(2,5-dichlorothiophen-3-ylsulfonyl)pyrrolidin-2-yl)methoxy)-1-(4-hydroxy-4-(pyridin-3-yl)piperidin-1-yl)ethanone] | 84.2% | 85.1% | – |
| CN(CCOCC(=O)N1CCC(O)(c2ccccn2)CC1)S(=O)(=O)c1ccc(OC(F)(F)F)cc1 [Example 20, N-{2-[2-(4′-hydroxy-3′,4′,5′,6′-tetrahydro-2′H-[2,4′]bipyridinyl-1′-yl)-2-oxo-ethoxy]-ethyl}-N-methyl-4-trifluoromethoxy-phenylsulfonamide] | 22.2% | 17.1% | – |
| Cc1cc(S(=O)(=O)N2CCCCC2CCC(=O)N2CCC(O)(c3ccccn3)CC2)c(C)cc1Cl (stereo not shown) [Example 119, 3-(1-(4-chloro-2,5-dimethylphenylsulfonyl)piperidin-2-yl)-1-(4-hydroxy-4-(pyridin-2-yl)piperidin-1-yl)propan-1-one] | 82.6% | 22.4% | – |
| CN(c1ccccc1CCC(=O)N1CCC(O)(c2ccc(Cl)c(C(F)(F)F)c2)CC1)S(=O)(=O)c1ccc(Cl)c(Cl)c1 [Example 124, 3,4-dichloro-N-(2-(3-(4-(4-chloro-3-(trifluoromethyl)phenyl)-4-hydroxypiperidin-1-yl)-3-oxopropyl)phenyl)-N-methylphenylsulfonamide] | 41% | 61.6% | – |
| Cc1cc(S(=O)(=O)N(C)CCOCC(=O)N2CCC(O)(c3ccc(Br)cc3)CC2)c(C)s1 [Example 257, N-(2-(2-(4-(4-bromophenyl)-4-hydroxypiperidin-1-yl)-2-oxoethoxy)ethyl)-N,2,5-trimethylthiophene-3-sulfonamide] | 49.4% | 101% | – |
| 2-((2-(3,4-dichlorophenylsulfonyl)-1,2,3,4-tetrahydroisoquinolin-3-yl)methoxy)-1-(4-hydroxy-4-phenylpiperidin-1-yl)ethanone [Example 76] | – | – | B1R antagonism, human [10 μM] % inhibition [1]: 9.96%; B1R antagonism, rat [10 μM] % inhibition [2]: 43.59% |
| O=C(COCC1CCCCN1S(=O)(=O)c1c(Cl)cc(C(F)(F)F)cc1Cl)N1CCC(O)(Cc2ccccc2)CC1 (stereo not shown) [Example 163, 1-(4-benzyl-4-hydroxypiperidin-1-yl)-2-((1-(2,6-dichloro-4-(trifluoromethyl)phenylsulfonyl)piperidin-2-yl)methoxy)ethanone] | 46.1% | 101% | – |
| COc1cc(C)c(S(=O)(=O)N2CCCCC2COCC(=O)N2CCC(O)(c3ccc(Cl)cc3)CC2)c(C)c1 (stereo not shown) [Example 242, 1-(4-(4-chlorophenyl)-4-hydroxypiperidin-1-yl)-2-((1-(4-methoxy-2,6-dimethylphenylsulfonyl)piperidin-2-yl)methoxy)ethanone] | 101% | 98.4% | – |
| Cc1cc(Cl)cc(Cl)c1S(=O)(=O)N(C)CCOCC(=O)N1CCC(O)(Cc2ccccc2)CC1 [Example 106, N-{2-[2-(4-benzyl-4-hydroxy-piperidin-1-yl)-2-oxo-ethoxy]-ethyl}-2,4-dichloro-6,N-dimethyl-phenylsulfonamide] | 97.8% | 96.1% | – |
| COc1cc(C)c(S(=O)(=O)N2CCCC(COCC(=O)N3CCC(O)(Cc4ccccc4)CC3)C2)c(C)c1 (stereo not shown) [Example 252, 1-(4-benzyl-4-hydroxypiperidin-1-yl)-2-((1-(4-methoxy-2,6-dimethylphenylsulfonyl)piperidin-3-yl)methoxy)ethanone] | 32.7% | 100% | – |
| COc1cc(C)c(S(=O)(=O)N(C)CCOCC(=O)N2CCC(O)(c3ccncc3)CC2)c(C)c1 [Example 88, N-{2-[2-(4-hydroxy-3,4,5,6-tetrahydro-2H-[4,4′]bipyridinyl-1-yl)-2-oxo-ethoxy]-ethyl}-4-methoxy-2,6,N-trimethyl-phenylsulfonamide] | 102% | 103% | – |
| O=C(COCC1CCCN1S(=O)(=O)c1c(Cl)cccc1Cl)N1CCC(O)(c2cccc(C(F)(F)F)c2)CC1 (stereo not shown) [Example 222, 2-((1-(2,6-dichlorophenylsulfonyl)pyrrolidin-2-yl)methoxy)-1-(4-hydroxy-4-(3-(trifluoromethyl)phenyl)piperidin-1-yl)ethanone] | 102% | 103% | – |
| Cc1cc(C)c(S(=O)(=O)N2CCCCC2COCC(=O)N2CCC(O)(c3cccnc3)CC2)c(C)c1 (stereo not shown) [Example 68, 1-(4′-hydroxy-3′,4′,5′,6′-tetrahydro-2′H-[3,4′]bipyridinyl-1′-yl)-2-[1-(2,4,6-trimethyl-phenylsulfonyl)-piperidin-2-ylmethoxy]-ethanone] | 74.9% | 79% | – |

Continued, in another order:

| inhibition at 10 µM [1] | inhibition at 10 µM [2] | Molecule | further results |
| --- | --- | --- | --- |
| 105% | 99.3% | COc1cc(C)c(S(=O)(=O)N2CCCCC2COCC(=O)N2CCC(O)(c3ccccc3)CC2)c(C)c1 (stereo not shown) [Example 244, 1-(4-hydroxy-4-phenylpiperidin-1-yl)-2-((1-(4-methoxy-2,6-dimethylphenylsulfonyl)piperidin-2-yl)methoxy)ethanone] | – |
| 103% | 99% | COc1cc(C)c(S(=O)(=O)N2CCCCC2COCC(=O)N2CCC(O)(c3ccc(Cl)c(C(F)(F)F)c3)CC2)c(C)c1 (stereo not shown) [Example 246, 1-(4-(4-chloro-3-(trifluoromethyl)phenyl)-4-hydroxypiperidin-1-yl)-2-((1-(4-methoxy-2,6-dimethylphenylsulfonyl)piperidin-2-yl)methoxy)ethanone] | – |
| 50.5% | 46.2% | O=C(COCC1CCCCN1S(=O)(=O)c1cccc(C(F)(F)F)c1)N1CCC(O)(c2ccccn2)CC1 (stereo not shown) [Example 96, 1-(4′-hydroxy-3′,4′,5′,6′-tetrahydro-2′H-[2,4′]bipyridinyl-1′-yl)-2-[1-(3-trifluoromethyl-phenylsulfonyl)-piperidin-2-ylmethoxy]-ethanone] | – |
| -0.46% | 4.46% | CN(CCOCC(=O)N1CCC(O)(c2ccccn2)CC1)S(=O)(=O)c1cc(F)ccc1F [Example 71, 2,5-difluoro-N-{2-[2-(4′-hydroxy-3′,4′,5′,6′-tetrahydro-2′H-[2,4′]bipyridinyl-1′-yl)-2-oxo-ethoxy]-ethyl}-N-methyl-phenylsulfonamide] | – |
